Experimental data as given in patent US8754058B2, “Inhibitors of FAM3B gene, inhibitor compositions, inhibiting methods and applications of inhibitors in preparing pharmaceuticals” (Suzhou Ribo Life Science Company, Ltd., priority 2009, dated 2014).
Entries after “also recorded” stand apart in the source; their conditions may differ. d = 2'-deoxy (DNA); r = 2'-OH (RNA)

Experiments:
[1] = system: FAM3B protein in HepG2 cells; assay: Western blot of FAM3B protein in transfected HepG2 cells; assay type: cell-based, human; conditions: 48 hours after transfection, Western blot grayscale, FIG. 5
Description: The cells are digested with 0.25% trypsin 24 hours before the transfection, then the cells are counted and inoculated into the 24 well plate in a density of 1×10^5 cells/ml, and 1000 μl cells are added in each well. Lipofectamine™ 2000 liposome from Invitrogen Company is used for the transfection with the small interfering nucleotides obtained from example 1 (FAM3B-1 to FAM3B-32) respectively, and unrelated small interfering nucleotide (the sense strand: 5-[…]-3 (SEQ ID NO: 78); the antisense strand: 5-ACGUGACACGUUC GGAGAATT-3 (SEQ ID NO: 79)) is used as the negative control.
(4) Inhibition on FAM3B Protein Expression by Using Small Interfering Nucleotides
After the cells transfected according to step (2) in example 6 are cultured for 48 hours, the cells are disrupted by using the protein lysis buffer and the total proteins are extracted, and the protein sample is examined according to the standard procedure for Western blot. For the detection of FAM3B protein, the membrane is incubated with the rabbit derived anti-FAM3B antibody (R&D systems), the secondary antibody is the peroxidase labelled horse anti-rabbit antibody (Zhongshan Jinqiao); the antibody for detecting the internal reference β-actin: the primary antibody is mouse derived anti-β-actin antibody, and the secondary antibody is the peroxidase labelled goat anti-mouse antibody, and the results are subjected to grayscale comparison shown as FIG. 5.

HepG2 cells = assay: inhibition of fat-emulsion-induced lipid accumulation in HepG2 cells, oil red O staining; assay type: cell-based, human; conditions: 20% fat emulsion induction 48 hours, 50 nM, 48 hours after transfection, FIG. 6
Description: (1) Induction of Lipid Accumulation in HepG2 Cells
The cells are inoculated in the 24 well culture plate in a density of 2×10^4 cells/1 mL, 20% fat emulsion for medical use is added in each well in a dosage of 2 ml/L, and the cells are cultured for 48 hours. The culture is stopped and oil red O staining is carried out to observe the lipids in the cells. The operations are as followed: the cells are rinsed with PBS for three times and 5 minutes each; then the cells are fixed with 50% isopropanol for 1 min and stained with oil red O for 10 min; the cells are rinsed with distilled water for three times and 1 min each; the cells are observed and photographed under a microscope. Normally, the cells might be not stained or only slightly stained, large amount of lipids accumulated in the cells after induction with fat emulsion for medical use, and red lipid droplets can be detected under the microscope after the staining with oil red O.
(2) Determination of the Inhibitory Effects on Lipid Accumulation in HepG2 Cells […]

[2] = system: FAM3B protein in hepatic tissues; assay: FAM3B protein expression in hepatic tissues of hyperlipemia model mice; assay type: in vivo; conditions: tail vein, daily for 7 days
From the text: (§1) The hyperlipemia model of mice is induced by using high-fat feeds, the C57BL/6J mice are purchased from Vital River, male, three weeks old. The formula for the high fat feeds is as below: basic feeds 83.5%, […], 1% cholesterol, 10% pork fat, 0.2% propylthiouracil, 0.3% sodium deoxycholate, 5% sucrose, and it is produced by the experimental animal center of Academy of Military Medical Sciences. The hyperlipemia model of mice is obtained after induction for 3-4 weeks.
(§2) After the small interfering nucleotide of FAM3B gene FAM3B-46 is labelled with cholesterol or coated with liposome, it is injected into the hyperlipemia model of mice via their tail veins. The injection is carried out for continuous 7 days with one injection each day and the samples are collected after 7 days. The standard dosages for injection are 2.5 mg, 5 mg and 10 mg for every kilogram of body weight. Other dosages such as 0.1 mg-50 mg small interfering nucleotide for every kilogram of body weight are also under test.

[3] = system: hyperlipemia model of mice; assay: TG and cholesterol levels in blood of hyperlipemia model mice; assay type: in vivo; conditions: tail vein, daily for 7 days, FIG. 9
From the text: as §1, §2

[4] = system: hyperlipemia model of mice; assay: TG and cholesterol levels in hepatic tissues of hyperlipemia model mice; assay type: in vivo; conditions: tail vein, daily for 7 days, FIG. 8
From the text: as §1
as §2, with “test. The products from Zhongsheng Beikong Biological Technological Co., Ltd. are used as the kit for detecting triglyceride (TG) and cholesterol, and they are determined on a SABA/18 automated biochemical analyzer. The detections are carried out with reference to the instruction for the kits of Biosino Bio-Technology and Science Incorporation. The animals are subjected to fast dieting 16 hours before blood sample collection.” for “test.”

FAM3B mRNA in intestine = assay: FAM3B mRNA expression in intestine of hyperlipemia model mice; assay type: in vivo; conditions: tail vein, daily for 7 days, FIG. 7
From the text: as §1, §2

[5] = system: FAM3B protein in intestine; assay: FAM3B protein expression in intestine of hyperlipemia model mice; assay type: in vivo; conditions: tail vein, daily for 7 days
From the text: as §1, §2

[6] = system: hepatic adipose infiltration model mice; assay: hepatic adipose infiltration model in mice (MCD diet), oil red O and HE staining of hepatic sections; assay type: in vivo; conditions: tail i.v. once every three days, 15 days, 2.5, 5 and 10 mg/kg, FIG. 2
From the text: (1) Induction on hepatic adipose infiltration model in mice. 10 male C57BL/6J mice (purchased from the department of experimental animals, Medical Division of Peking University) with age of 8-10 weeks are divided into two groups (normal diet and MCD diet). MCD (high-fat, methionine-choline deficient) diet is a common program for the investigations on non-alcoholic fatty liver in this field. The hepatic adipose infiltration model in mice is obtained after treatments for 10-16 weeks. (2) Treatments on Hepatic Adipose Infiltration Using Small Interfering Nucleotides
1.2 mg (0.09 μmol) small interfering nucleotides from FAM3B-43 to FAM3B-46 with modification in the example 3 is dissolved in 1.5 ml RNAase free sterilized physiological saline to prepare a solution comprising 60 μmol/L small interfering nucleotides, and it is mixed in certain proportion with the carrier material. The injection is obtained after the mixed small interfering nucleotide is added into 5 ml RNAase free sterile physiological saline (the concentration of the small interfering nucleotide is 0.25 mg/ml). […]

[7] = standard dosages 2.5, 5, 10 mg/kg
[8] = standard dosages and 10 mg/kilogram body weight

FAM3B-15: siRNA, human FAM3B; sense 5′-GCACUUGGAAGUAAAGAAAdTdT-3′; antisense 5′-UUUCUUUACUUCCAAGUGCdTdT-3′ (sense GCACUUGGAAGUAAAGAAATT; antisense UUUCUUUACUUCCAAGUGCTT; sugars from the 5' end r19 d2, backbone not given here)
inhibition of FAM3B protein expression in HepG2 cells [1]: significantly inhibit

FAM3B-17: siRNA, human FAM3B; sense 5′-GGUCUAGCUGGGUAUUUAUdTdT-3′; antisense 5′-AUAAAUACCCAGCUAGACCdTdT-3′ (sense GGUCUAGCUGGGUAUUUAUTT; antisense AUAAAUACCCAGCUAGACCTT; sugars from the 5' end r19 d2, backbone not given here)
inhibition of FAM3B protein expression in HepG2 cells [1]: significantly inhibit

FAM3B-20: siRNA, human FAM3B; sense 5′-GCUAAGAACAACAGAUAUUdTdT-3′; antisense 5′-AAUAUCUGUUGUUCUUAGCdTdT-3′ (sense GCUAAGAACAACAGAUAUUTT; antisense AAUAUCUGUUGUUCUUAGCTT; sugars from the 5' end r19 d2, backbone not given here)
inhibition of FAM3B protein expression in HepG2 cells [1]: significantly inhibit
inhibition of fatty deposition in HepG2 cells (HepG2 cells): significantly inhibit fatty deposition

FAM3B-11: siRNA, human FAM3B; sense 5′-CUCUGGACCGAUGACAAAGdTdT-3′; antisense 5′-CUUUGUCAUCGGUCCAGAGdTdT-3′ (sense CUCUGGACCGAUGACAAAGTT; antisense CUUUGUCAUCGGUCCAGAGTT; sugars from the 5' end r19 d2, backbone not given here)
inhibition of FAM3B protein expression in HepG2 cells [1]: significantly inhibit

FAM3B-24: siRNA, human FAM3B; sense 5′-GAGUAAAUGUGUUCUGUAUdTdT-3′; antisense 5′-AUACAGAACACAUUUACUCdTdT-3′ (sense GAGUAAAUGUGUUCUGUAUTT; antisense AUACAGAACACAUUUACUCTT; sugars from the 5' end r19 d2, backbone not given here)
inhibition of FAM3B protein expression in HepG2 cells [1]: significantly inhibit

unrelated small interfering nucleotide: negative control siRNA; sense 5-UUCUCCGAACGUGUCACGUTT-3 (SEQ ID NO: 78); antisense 5-ACGUGACACGUUCGGAGAATT-3 (SEQ ID NO: 79) (chemistry not given here) [reference compound]
reduction of FAM3B protein expression in hepatic tissues [2]: could not significantly reduce
reduction of TG level in blood [3]: could not significantly reduce
reduction of cholesterol level in blood [3]: could not significantly reduce
reduction of TG level in hepatic tissues [4]: could not significantly reduce
reduction of cholesterol level in hepatic tissues [4]: could not significantly reduce
reduction of FAM3B mRNA expression in intestine (FAM3B mRNA in intestine): could not significantly reduce
reduction of FAM3B protein expression in intestine [5]: could not significantly reduce

FAM3B-46: chemically modified mouse FAM3B siRNA (2′-O-methyl sense with cholesterol, 2′-fluoro antisense); 5-UCAGAAAUCGAGAGAGAAAdTdT; 5-UUUCUCUCUCGAUUUCUGAdTdT (sense UCAGAAAUCGAGAGAGAAATT; antisense UUUCUCUCUCGAUUUCUGATT; Sense 2'-OMe, antisense 2'-F at italic positions, sense cholesterol at terminus, further chemistry not given here)
reduction of FAM3B protein expression in hepatic tissues [2, 7]: 40%
reduction of TG level in blood [3]: significantly reduce
reduction of cholesterol level in blood [3]: significantly reduce
reduction of TG level in blood [3, 8]: 25-50%
reduction of cholesterol level (cholesterol level in blood examined; printed 'in hepatic tissues') [3, 8]: 25-50%
reduction of TG level in hepatic tissues ([4]; 5 mg and 10 mg/kilogram body weight): 20-40%
reduction of cholesterol level in hepatic tissues ([4]; 10 mg/kilogram body weight): 15-30%
reduction of TG level in hepatic tissues [4]: significantly reduce
reduction of cholesterol level in hepatic tissues [4]: significantly reduce
reduction of FAM3B mRNA expression in intestine (FAM3B mRNA in intestine): significantly inhibit
reduction of FAM3B mRNA expression in intestine (FAM3B mRNA in intestine; [7]): 45%
degree of hepatic adipose infiltration (oil red O and HE staining) [6]: effectively reduce the degree of hepatic adipose infiltration; also recorded: significantly reduced
reduction of FAM3B protein expression in intestine [5, 7]: 30%
